Consider 1 compound from patent US20100240656A1, “COMPOUNDS AS HSP90 INHIBITORS” (ORYZON GENOMICS, S.A., priority 2007, published 2010).

The test system of this test is Hsp90 client proteins (c-Raf-1, Cdk4, Her2) and co-chaperone Hsp70. Briefly: Determination of biomarkers in cell cultures (western blot, MCF7 cells). The conditions noted are these: 33 and 100 μM, 72 hours. In kind it is cell-based, human. From the text:
FIG. 1 is a western blot analysis to determine the protein levels of Hsp90 client proteins (c-Raf-1, Cdk4, and Her2) and the co-chaperone Hsp70 upon treatment with increasing concentrations of example 6 (compound of the invention) and 17AAG (which is known in the state of the art as a degradation promoter).
The aim of this study was to determine the influence of example 6 on the levels of pharmacodynamic biomarkers such as c-Raf-1, Cdk4, Her2 and Hsp70, indicative that the effect observed in cell viability is mediated through inhibition of Hsp90. GADPH was used as a control of protein loading.
MCF7 cells (1×10^6) were seeded on tissue culture dishes and allowed to grow overnight at 37° C. with 5% CO2. Cells were treated with example 6 compound (at 33 and 100 μM) and the known Hsp90 inhibitor 17AAG (at […]). 0.5% DMSO was used as control. […] Protein concentration was measured by the Bradford method (Bio-Rad Protein Assay, Bio-Rad). […] Following appropriate secondary antibody incubation for 1 h at room temperature (anti-rabbit IgG-HRP, NA934V, Amersham Biosciences, diluted 1:8000; anti-mouse IgG-HRP, sc-2061, Santa Cruz Biotechnology, diluted 1:2500 and, anti-goat IgG-HRP, sc-31154, Santa Cruz Biotechnology, diluted 1:3500), the specific protein signals were detected using the ECL-Plus Western blotting detection system (GE Healthcare) according to the manufacturer's instructions. […]

Entries after “also recorded” stand apart in the source; their conditions may differ.

With `NCCCCCn1c(Sc2cc3c(cc2I)OCO3)nc(C(N)=O)c1N` [Example 6, 5-amino-1-(5-amino-pentyl)-2-(6-iodo-benzo[1,3]dioxol-5-ylsulfanyl)-1H-imidazole-4-carboxamide], the “protein levels of Hsp90 client proteins (c-Raf-1, Cdk4, Her2) and co-chaperone Hsp70 by western blot” value is listed as “acts in a similar way that 17AAG; also recorded: there is a specific interaction with hsp90 target in cells”.
